Reference: US12656355B2, “Two phase indicator displacement assay” (The Florida State University Research Foundation, Inc., priority 2022, dated 2026)
Values belong to the compound of their own block, whether it stands above or below them.

What was measured:
Format in all cases: physicochemical
[1] = Cross-polarized microscopy of CTAB containing octanol droplets exposed to aqueous dye; conditions: for anisotropic phase (birefringent ring) formation, single-dye system: 400 uM red dye only or 50 uM blue dye only, CTAB drops 7.5-60 mM, ring at 30 mM CTAB or higher; for birefringent phase formation under crossed polarizers: CTAB containing droplet arrays exposed to dye (FIGS. 6A-6B)
Procedure: Also, it can be observed that there is formation of an anisotropic phase in the 30 mM CTAB drops in the red and blue dye and the red dye only systems before the red dye fully partitions into the organic phase of the drop around 5 minutes. After 5 minutes, as the red dye continues to partition into the organic phase, this anisotropic phase seems to disappear. This can be observed by observing the absence of the anisotropic phase at 10 minutes and all later times for the 30 mM CTAB drops in the red and blue dye and the red dye only systems. […] This pattern of anisotropic phase formation before the red dye partitions supports the kinetic barrier mechanism which depends on the formation of some anisotropic phase on the interface of the drops with high CTAB concentration that hinders the red dye from partitioning in and allows the blue dye to partition in at a faster rate resulting in the observed high CTAB concentration blue dye selectivity and the low CTAB concentration red dye selectivity in the Bell, 2020 study.
Erioglaucine disodium salt (Blue 1) was purchased from Sigma-Aldrich (St. Louis, MO, USA). Allura red AC (Red 40) was obtained from TCI (Tokyo, Japan). For the birefringent ring experiments shown in FIG. 3, 400 uM red 40 dye and 50 uM blue 1 dye were dissolved in D.I. water. For the equilibrium tube experiment, dye concentrations were chosen based on the assumption that one dye molecule can be sequestered for every two CTAB molecules. The dye concentrations are chosen such that once this criterion is met, there will be enough dye left in the aqueous phase to be detected by a spectrophotometer so that the aqueous phase solution will have concentrations of 1700 uM, 850 uM, 425 uM, 213 uM, 106 uM for both red 40 dye and blue 1 dye.
The different lipid solutions were microarrayed using 0.1-10 μL disposable sterile pipet tips (VWR) directly onto the substrate. Drops were 0.1 uL in volume and only had contact with the bottom glass slide. After tapping the microarray onto the substrate, 0.3 mm thick PDMS was used as a spacer between the substrate and the cover. The two spacers will be fixed 1.8 cm apart onto the substrate. The coverslip will be placed carefully onto two spacers. Microscope slides manufactured by Azer Scientific (Unifrost) will be used as substrates. Microscope cover glasses (25 mm Å˜25 mm) manufactured by VWR will be used as slipcovers. Approximately 130 μL of aqueous solution was added to the right side of the flow cell and moved quickly through the flow cell. Prior to experiments, test samples will be incubated in 1 mL of deionized water to test for stability.
The blue 1 dye and red 40 dye used wavelengths of 629 nm and 501 nm respectively for absorbance measurements. Microarray samples requiring 30 min or less were imaged with a digital microscope (Dino-Lite Pro2 AD-413T or Dino-Lite Edge AM4115ZT) at 100 Å˜ magnification. For imaging lipid microarrays, a portable backlight stage (Dino-Lite MSBL-ZW1R) was used as a white light source and positioned under the bottom of the slide to illuminate the sample.

[2] = Surfactant mediated selective dye partitioning octanol/water in tubes (non-equilibrated); conditions: mixture of red and blue dye in water, 4-48 hours
Procedure: Herein, detecting selective partitioning into droplets in a microfluidic device was scaled up to millimeter volumes in tubes, as shown in FIGS. 15A-15B and FIGS. 16A-16B. The selective partitioning behavior of the two dyes between the octanol and water phases was studied in test tubes (FIGS. 15A-15B), and dye concentrations quantified optically. First, solutions of CTAB in octanol and both dyes in water were prepared separately. Then both the aqueous and organic solutions were combined into one tube. After some time, one or both dyes partitioned into the organic phase. […] Due to the larger scale of the experiment, it took between 4-48 hours to observe the selectivity, as compared to 1-10 minutes in the microfluidic setup. (Bell, 2020.) A question about the mechanism of this surfactant mediated molecular recognition was then whether one dye is thermodynamically favored to partition into the octanol in the presence of CTAB or whether it is kinetically driven. […]
(§1) Erioglaucine disodium salt (Blue 1) was purchased from Sigma-Aldrich (St. Louis, MO, USA). […] The dye concentrations are chosen such that once this criterion is met, there will be enough dye left in the aqueous phase to be detected by a spectrophotometer so that the aqueous phase solution will have concentrations of 1700 uM, 850 uM, 425 uM, 213 uM, 106 uM for both red 40 dye and blue 1 dye.

[3] = Equilibrium dye partitioning octanol/water with CTAB (tubes, absorbance of aqueous phase); conditions: for stoichiometric ratio, CTAB molecules needed to extract each dye molecule: calculated from dye left in the water after extraction, where not all dye was extracted
From the text: To examine the dye partitioning at equilibrium, the two-phase system at various CTAB concentrations, samples were left on a shaker for one week followed by centrifugation and optical characterization of the aqueous phase by absorbance spectroscopy (FIGS. 16A-16B). Tubes containing only the red dye and only blue dye were included in the experiment as well as tubes with the dye mixture. […] CTAB has a net charge of +1 whereas both dye molecules have a net charge of −2. Thus, two positively charged CTAB can effectively balance the negative charge of the dye molecules resulting in a zero net charge for a complex of two CTAB and one dye molecule.
In order to further study the equilibrium state at high CTAB concentrations, the setup was used to allow for observation of the equilibrated state at high CTAB concentrations with excess dye in the water. Using the previously calculated dye ratios needed for maximum saturation in the organic phase, the dye concentrations were chosen so that it would be impossible for both red and blue dye to fully partition into the organic phase. Tubes with a range of concentration from 3.75 mM to 60 mM CTAB dissolved in octanol and deionized water with blue and red dye concentrations ranging from 106 μM to 1700 μM. By observing which dye is left in the aqueous phase after equilibrium is reached, it can be determined which dye is more thermodynamically favorable in the organic phase at equilibrium. If the mechanism for the blue dye selectivity at high CTAB concentrations is thermodynamic in nature and depends on the formation of micelles in the organic phase, then at high CTAB concentrations the dye remaining in the aqueous phase should be the red dye and at low CTAB concentrations, the dye remaining in the aqueous phase should be the blue dye. However, if the mechanism is kinetic and relies on the formation of an aggregation phase at the interface of the two phases, then at all concentrations of CTAB the dye remaining in the aqueous phase should be the blue dye. […] From this it was concluded that the red dye is thermodynamically favored to partition into the CTAB containing organic phase.
as §1, with “USA). Allura red AC (Red 40) was obtained from TCI (Tokyo, Japan).” for “USA).”, “dye. […]” for “dye.”
The blue 1 dye and red 40 dye used wavelengths of 629 nm and 501 nm respectively for absorbance measurements. […]

[4] = Partitioning indicator displacement assay (PIDA), CTAB/octanol drops with blue 1 dye indicator
From the text: The organic drops with fully dissolved indicator were exposed to an aqueous phase containing the target analyte. Over time the target analyte displaced the indicator and partitioned into the organic phase. In this experiment, the sensor had various concentrations of CTAB dissolved into the organic phase and used the maximum saturation ratio of blue dye to CTAB (Mechanism paper) to saturate each organic phase solution with the indicator, blue FCF dye. The displacement of blue dye from the organic phase was measured by monitoring optical transmittance using a color camera.
Five concentrations (60 mM, 30 mM, 15 mM, 7.5 mM, and 3.75 mM) of CTAB in octanol were placed in a tube along with 50 μM of blue dye dissolved in D.I. water, set on a shaker and allowed to equilibrate. An array was made with a sample of each concentration with the blue dye; with 11 drops (replicates) of each concentration and viewed using a DinoLite microscope. Four-hundred μM of aqueous red dye was flowed into the array and a picture was taken before addition of red dye and then every 5 seconds over a 15 minute period. […] Images were analyzed in imageJ, using […] within each replicate and 25 points for background analysis. The replicates were then separated by channel as gray values of the micrographs, and data normalized into absorbance values by subtracting the original dye free data from each replicate. The replicates were averaged per concentration and the data was transferred into percent transmittance using the formula […].
The organic solute cetyltrimethylammonium bromide (CTAB) was purchased from Sigma-Aldrich (St. Louis, USA). Erioglaucine disodium salt (Blue 1) was purchased from Sigma-Aldrich (St. Louis, MO, USA). 10 mL of 6 mM, 3 mM, 1.5 mM, 0.75 mM, and 0.375 mM blue 1 dye dissolved in deionized water and added to separate tubes containing 2 mL of different concentrations of CTAB in octanol (60 mM, 30 mM, 15 mM, 7.5 mM, and 3.75 mM), set on a shaker and allowed to equilibrate. After equilibrating for one week, the organic layer of each CTAB concentration containing the blue 1 dye was used to make the microarray.
50 nL octanol drops containing CTAB and blue 1 dye were placed onto microscope slides manufactured by Azer Scientific (Unifrost) using 0.1-10 μL disposable sterile pipet tips (VWR). A barrier of 0.3 mm PDMS was used as a spacer between the slide and cover slip (25 mm×25 mm) manufactured by VWR. Approximately 135 μL of analyte solution was added to the flow cell and moved quickly through the flow cell.
Samples were imaged with a digital microscope (Dino-Lite Pro2 AD-413T or Dino-Lite Edge AM4115ZT) at 100 Å˜ magnification. For imaging PIDA assays, a portable backlight stage (Dino-Lite MSBL-ZW1R) was used as a white light source and positioned under the bottom of the slide to illuminate the sample. Images for measurement of the transmittance were captured in brightfield mode. The time dependent partitioning was recorded at one frame per 20 second intervals.
Images were analyzed in imageJ, using 10 points within each replicate and 25 points for background analysis. The replicates were then separated into different RGB channels as gray values of the micrographs. The data was then normalized into transmittance values by subtracting the original dye free data from each replicate. The data was then converted into absorbance using the formula […]. Using the absorbance data, and the measured initial blue dye concentrations, the data was converted to blue dye concentration and then the replicates were averaged per concentration and the standard deviation was calculated. Graphs showing the separate channels of the micrographs, with the red color (b) or blue color (e) that was viewable with the DinoLite, and how they differed with concentration (B and E). The graphs are made from each of the 5 concentrations with their associated normalized absorbance values. […]

[5] = 3.75 mM CTAB drops, blue 1 dye indicator, red 40 dye analyte, from TRF fitting

anisotropic phase (birefringent ring) formation, single-dye system ([1]; disodium salt): no anisotropic phase formation | anisotropic phase (birefringent ring) formation, single-dye system ([1]; listed as Blue Dye, disodium salt): doesn't cause a ring | stoichiometric ratio, CTAB molecules needed to extract each dye molecule [3]: approximately 2
Compound: CCN(Cc1cccc(S(=O)(=O)[O-])c1)c1ccc(C(=C2C=CC(=[N+](CC)Cc3cccc(S(=O)(=O)[O-])c3)C=C2)c2ccccc2S(=O)(=O)[O-])cc1.[Na+].[Na+] [blue dye, Erioglaucine disodium salt]
selective partitioning into the octanol phase ([2]; high CTAB concentrations (30 mM and 60 mM) in octanol): selectively partitioned into the octanol phase

Compound: [Cl-].[Na+] [sodium chloride]
blue dye indicator displaced ([4]; 50 mM analyte, after 10 minutes, 7.5 mM CTAB containing octanol drops (FIG. 7B)): ~48.3%

anisotropic phase (birefringent ring) formation, single-dye system [1]: formation of an anisotropic structure | anisotropic phase (birefringent ring) formation, single-dye system ([1]; listed as Allura Red Dye): causes a ring | birefringent phase formation under crossed polarizers [1]: birefringent phase forming | stoichiometric ratio, CTAB molecules needed to extract each dye molecule [3]: approximately 2 | partitioning at equilibrium ([3]; low CTAB concentration (<15 mM), shaker one week): partitioned into the octanol phase
Compound: COc1cc(S(=O)(=O)[O-])c(C)cc1N=Nc1c(O)ccc2cc(S(=O)(=O)[O-])ccc12.[Na+].[Na+] [red dye, Allura red AC]
selective partitioning into the octanol phase ([2]; CTAB 0.5 mM and 1 mM in octanol): selectively partitioned into the octanol phase | partitioning at equilibrium with excess dye in the water ([3]; 3.75 mM to 60 mM CTAB in octanol, blue and red dye 106 μM to 1700 μM, all concentrations tested): preferentially partition into the organic phase

birefringent phase formation under crossed polarizers [1]: not
Compound: O=S(=O)([O-])c1ccc(N=Nc2c(O)ccc3cc(S(=O)(=O)[O-])ccc23)cc1.[Na+].[Na+] [Sunset Yellow FCF]

Compound: CCCCCCCCCCCCCCCC[N+](C)(C)C.[Br-] [CTAB, cetyltrimethylammonium bromide]
delay in onset time of displacement [4, 5]: no delay in onset time | rate of displacement (decay constant) [4, 5]: 0.48 s⁻¹ | rate of displacement (decay constant) ([4]; 7.5 mM CTAB drops, blue 1 dye indicator, red 40 dye analyte, from TRF fitting): 0.42 s⁻¹ | delayed onset time of displacement ([4]; 30 mM CTAB drops, blue 1 dye indicator, red 40 dye analyte, from TRF fitting): 7.76 min | displacement rate ([4]; 30 mM CTAB, blue 1 dye indicator, red 40 dye analyte, from TRF fitting): 0.07 s⁻¹
